What was measured:
[1] = DL50; format: in vivo; design: unit not given beside the values; conditions: species, route and unit not given
[2] = test system: alpha 1; assay: Chemical bond studies: interference with alpha 1 receptor (% inhibition); format: binding; conditions: table 2
[3] = test system: serotonin 2; assay: Chemical bond studies: interference with serotonin 2 receptor (% inhibition); format: binding; conditions: table 2
[4] = attributed to action on adrenergic receptors (alpha 1 and alpha 2); cited from earlier work
[5] = Burger's Medicinal Chemistry, 4th ed. (1981); cited from earlier work

Compound | DL50 [1] | alpha 1 (% inhibition) ([2]; C = 10^-5 M) | alpha 1 (% inhibition) ([2]; C = 10^-7 M) | serotonine 2 (% inhibition) ([3]; C = 10^-5 M) | serotonine 2 (% inhibition) ([3]; C = 10^-7 M) | sporadic side effects [4] | clinical actions [5]
CC1CN(c2cccc(Cl)c2)CCN1CCCn1nc2ccccn2c1=O (centres unmarked) [(I) R = R' = R"' = H; R" = CH3, 2-[3-[4-(3-chlorophenyl)-1-(2-methyl)-piperazinyl]-propyl]-1,2,4-triazole-[4,3-a]-pyridin-3(2H)-one] | 300 | 96% | 37% | 100% | 69% | – | –
O=c1n(CCCN2CCN(c3cccc(Cl)c3)CC2)nc2ccccn12 [trazodone] | ≥ 200 | – | – | – | – | hypotension and priapism | diazepine-like clinical actions
CC1CN(CCCn2nc3ccccn3c2=O)CCN1c1cccc(Cl)c1 (centres unmarked) [(I) R = R' = R" = H; R"' = CH3, 2-[3-[4-(3-chlorophenyl)-1-(3-methyl)-piperazinyl]-propyl]-1,2,4-triazole-[4,3-a]-pyridin-3(2H)-one] | ≤ 600 | 85% | 20% | 98% | 68% | – | –
CC(CN1CCN(c2cccc(Cl)c2)CC1)Cn1nc2ccccn2c1=O (centres unmarked) [(I) R' = R" = R"' = H; R = CH3, 2-[3-[4-(3-chlorophenyl)-1-piperazine]-2-methylpropyl]-1,2,4-triazole[4,3-a]-pyridin-3-(2H)-one] | ≤ 600 | 88% | 27% | 100% | 62% | – | –
CC(CCn1nc2ccccn2c1=O)N1CCN(c2cccc(Cl)c2)CC1 (centres unmarked) [(I) R = R" = R"' = H; R' = CH3, 2-[3-[4-(3-chlorophenyl)-1-piperazinyl]-3-methylpropyl]-1,2,4-triazole-[4,3-a]-pyridin-3(2H)-one] | ≤ 300 | 91% | 26% | 100% | 59% | – | –

— patent US5739334A (Istituto Ricerca Francesco Angelini S.p.A., priority 1992, dated 1998)
